Data as given in ChEMBL document CHEMBL1201862, “PubChem BioAssay data set” (2004).
Calls of active or inactive are those of the source.

Key:
[1] = biological target: Kallikrein-7 (Homo sapiens, UniProt P49862); experiment: Fluorescence Intensity-based biochemical primary high throughput dose response assay to identify activators of kallikrein-7 (K7) zymogen.
[2] = test system: HT-1080; experiment: HT1080 cell viability loss – fluorescence readout (AID 620); assay type: functional, cell-based; conditions: Homo sapiens
[3] = biological target: Luciferin 4-monooxygenase (Photinus pyralis, UniProt P08659); experiment: Counter Screen for Luciferase-based Assay Positives. [Related pubchem assays: 620, 618, 411 ]
Luciferin 4-monooxygenase, sequence (P08659 whole entry): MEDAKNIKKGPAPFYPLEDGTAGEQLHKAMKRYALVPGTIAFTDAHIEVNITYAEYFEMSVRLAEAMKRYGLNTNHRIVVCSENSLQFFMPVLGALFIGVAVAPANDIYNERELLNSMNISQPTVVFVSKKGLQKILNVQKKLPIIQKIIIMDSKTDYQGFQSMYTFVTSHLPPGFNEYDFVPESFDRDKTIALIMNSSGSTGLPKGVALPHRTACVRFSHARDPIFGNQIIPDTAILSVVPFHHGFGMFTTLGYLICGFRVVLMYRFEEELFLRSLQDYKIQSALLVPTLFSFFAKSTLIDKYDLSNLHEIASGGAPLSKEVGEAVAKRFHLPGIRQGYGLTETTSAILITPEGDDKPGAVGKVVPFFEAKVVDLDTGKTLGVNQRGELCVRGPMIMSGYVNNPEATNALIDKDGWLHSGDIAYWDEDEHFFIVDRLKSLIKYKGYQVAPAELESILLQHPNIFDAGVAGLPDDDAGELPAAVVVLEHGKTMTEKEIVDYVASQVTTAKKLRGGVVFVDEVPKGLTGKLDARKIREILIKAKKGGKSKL

[4] = Counterscreen for IDE inhibitors: Luminescence-based cell-based high throughput dose response assay to identify compounds that are cytotoxic to HEK cells. [Related pubchem assays: 434962 (Primary screen (IDE inhibitors in singlicate)), 449730 (Counterscreen (Cytotoxicity in triplicate)), 435028 (Confirmation (IDE inhibitors in triplicate)) …; assay type: functional; conditions: HEK293
[5] = biological target: T1, Insulin-degrading enzyme (Homo sapiens, UniProt P14735); experiment: Dose Response: Fluorescence polarization-based cell-based high throughput dose response assay for inhibitors of insulin-degrading enzyme (IDE). [Related pubchem assays: 434962 (Primary screen (IDE inhibitors in singlicate)), 449730 (Counterscreen (Cytotoxicity in triplicate)), 435028 (Confirmation (IDE inhibitors in triplicate)), 434984 (Summary …; assay type: functional
T1 sequence (P14735 whole entry): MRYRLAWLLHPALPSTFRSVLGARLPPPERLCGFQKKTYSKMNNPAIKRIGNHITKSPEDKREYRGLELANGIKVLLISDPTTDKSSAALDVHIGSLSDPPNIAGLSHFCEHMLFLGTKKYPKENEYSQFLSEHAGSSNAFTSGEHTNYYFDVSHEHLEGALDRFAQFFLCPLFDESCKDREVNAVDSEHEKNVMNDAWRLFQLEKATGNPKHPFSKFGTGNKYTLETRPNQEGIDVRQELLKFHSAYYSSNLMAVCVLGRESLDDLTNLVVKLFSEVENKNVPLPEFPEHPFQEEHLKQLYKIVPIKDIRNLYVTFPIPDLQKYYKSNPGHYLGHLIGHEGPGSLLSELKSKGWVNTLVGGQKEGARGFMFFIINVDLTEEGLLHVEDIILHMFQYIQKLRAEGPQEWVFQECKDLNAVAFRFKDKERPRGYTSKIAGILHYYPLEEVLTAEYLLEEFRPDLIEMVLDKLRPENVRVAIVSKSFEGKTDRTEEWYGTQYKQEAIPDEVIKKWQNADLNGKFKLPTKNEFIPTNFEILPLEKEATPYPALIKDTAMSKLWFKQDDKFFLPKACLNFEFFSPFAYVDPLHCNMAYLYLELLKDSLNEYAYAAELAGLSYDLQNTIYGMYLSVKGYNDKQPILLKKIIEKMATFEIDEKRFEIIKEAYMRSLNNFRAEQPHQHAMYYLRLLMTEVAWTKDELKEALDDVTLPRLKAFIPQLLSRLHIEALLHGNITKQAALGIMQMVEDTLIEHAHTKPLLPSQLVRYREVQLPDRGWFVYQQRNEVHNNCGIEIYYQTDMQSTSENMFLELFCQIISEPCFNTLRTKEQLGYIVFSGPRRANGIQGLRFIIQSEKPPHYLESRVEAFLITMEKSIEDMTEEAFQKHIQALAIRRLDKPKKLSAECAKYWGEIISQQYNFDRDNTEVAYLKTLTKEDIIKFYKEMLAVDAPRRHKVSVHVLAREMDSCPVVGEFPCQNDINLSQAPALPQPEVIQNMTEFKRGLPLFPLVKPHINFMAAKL

[6] = biological target: Voltage-gated inwardly rectifying potassium channel KCNH2 (Homo sapiens, UniProt Q12809); experiment: concentration-dependent hERG rescue from blockers – cell-based, thallium flux, dose response (AID 2121); assay type: ADME
Voltage-gated inwardly rectifying potassium channel KCNH2, sequence (Q12809 whole entry, the tested form may be a part): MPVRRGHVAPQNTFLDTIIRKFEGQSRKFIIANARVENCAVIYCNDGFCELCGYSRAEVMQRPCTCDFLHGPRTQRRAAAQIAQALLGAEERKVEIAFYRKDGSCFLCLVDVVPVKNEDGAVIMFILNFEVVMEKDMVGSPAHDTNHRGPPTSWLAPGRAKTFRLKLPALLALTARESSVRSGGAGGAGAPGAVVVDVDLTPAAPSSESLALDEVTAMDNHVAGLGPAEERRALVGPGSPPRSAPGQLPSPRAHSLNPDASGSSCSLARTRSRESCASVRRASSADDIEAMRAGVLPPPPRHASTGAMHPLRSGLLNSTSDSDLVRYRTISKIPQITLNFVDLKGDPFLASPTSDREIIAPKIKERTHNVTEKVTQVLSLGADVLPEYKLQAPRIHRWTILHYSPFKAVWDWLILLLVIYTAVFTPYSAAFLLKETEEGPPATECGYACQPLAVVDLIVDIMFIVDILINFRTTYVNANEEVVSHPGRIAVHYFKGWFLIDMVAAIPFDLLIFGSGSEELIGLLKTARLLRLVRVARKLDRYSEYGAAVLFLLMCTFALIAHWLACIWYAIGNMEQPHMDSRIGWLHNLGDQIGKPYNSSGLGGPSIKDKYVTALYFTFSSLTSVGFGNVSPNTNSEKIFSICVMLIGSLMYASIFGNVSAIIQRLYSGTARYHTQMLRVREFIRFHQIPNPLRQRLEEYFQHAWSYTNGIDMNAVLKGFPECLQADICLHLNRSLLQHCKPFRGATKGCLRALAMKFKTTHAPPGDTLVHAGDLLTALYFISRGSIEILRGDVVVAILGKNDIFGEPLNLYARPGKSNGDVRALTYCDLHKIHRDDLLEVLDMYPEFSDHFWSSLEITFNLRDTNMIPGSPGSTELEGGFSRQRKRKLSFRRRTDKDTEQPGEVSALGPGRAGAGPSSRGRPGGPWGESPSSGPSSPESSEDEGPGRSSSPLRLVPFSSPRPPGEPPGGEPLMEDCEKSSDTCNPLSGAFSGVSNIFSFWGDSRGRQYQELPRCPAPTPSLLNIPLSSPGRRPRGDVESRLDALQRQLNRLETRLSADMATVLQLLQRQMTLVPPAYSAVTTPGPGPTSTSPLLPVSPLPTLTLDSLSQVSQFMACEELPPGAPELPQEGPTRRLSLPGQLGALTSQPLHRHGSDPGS

[7] = biological target: T2, Polyadenylate-binding protein 1 (Homo sapiens, UniProt P11940); experiment: MLLE domain peptide-binding blockers, IC50 – biochemical, fluorescence polarization, FITC-PAM2 peptide, dose response (AID 602259); assay type: functional; conditions: read-out: IC50_Mean
T2 sequence (P11940 whole entry, the tested form may be a part): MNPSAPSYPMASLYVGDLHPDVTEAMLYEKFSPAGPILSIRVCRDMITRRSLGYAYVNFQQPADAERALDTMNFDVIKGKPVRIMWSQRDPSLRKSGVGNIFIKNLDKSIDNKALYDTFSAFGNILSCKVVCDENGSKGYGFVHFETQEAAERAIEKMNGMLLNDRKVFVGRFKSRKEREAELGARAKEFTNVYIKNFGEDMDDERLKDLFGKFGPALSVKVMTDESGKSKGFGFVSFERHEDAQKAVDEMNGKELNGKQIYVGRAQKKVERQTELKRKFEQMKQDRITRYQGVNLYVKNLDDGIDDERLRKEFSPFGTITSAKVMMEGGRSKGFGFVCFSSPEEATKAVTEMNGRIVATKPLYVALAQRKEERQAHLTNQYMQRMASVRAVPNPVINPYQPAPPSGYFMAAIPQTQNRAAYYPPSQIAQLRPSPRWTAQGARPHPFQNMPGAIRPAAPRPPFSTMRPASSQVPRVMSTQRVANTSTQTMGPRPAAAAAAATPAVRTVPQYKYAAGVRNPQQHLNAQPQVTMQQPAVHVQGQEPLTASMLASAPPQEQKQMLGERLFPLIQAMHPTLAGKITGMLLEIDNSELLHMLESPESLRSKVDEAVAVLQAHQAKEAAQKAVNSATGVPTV

[8] = biological target: T2, Polyadenylate-binding protein 1; experiment: MLLE binding blockers, Cy5 peptide tracer – biochemical, fluorescence polarization, Cy5-PAM2 peptide, secondary, miRNA deadenylation inhibitor project, dose response (AID 602260); assay type: functional; conditions: read-out: IC50_Mean
[9] = OVCAR-3 cell viability loss – plate reader, dry powder samples, PAX8 inhibitor project, dose response (AID 743044); assay type: functional, cell-based
[10] = biological target: Paired box protein Pax-8 (Homo sapiens, UniProt Q06710); experiment: PAX8 transcriptional activity inhibition in RMG-I – RMG-I cells, luciferase, cherry-pick, dose response (AID 687027); assay type: functional, cell-based;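 also: luciferase reporter driven by Pax8 target thyroperoxidase promoter measured by SteadyGlo luminescence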
Paired box protein Pax-8, sequence (Q06710 whole entry): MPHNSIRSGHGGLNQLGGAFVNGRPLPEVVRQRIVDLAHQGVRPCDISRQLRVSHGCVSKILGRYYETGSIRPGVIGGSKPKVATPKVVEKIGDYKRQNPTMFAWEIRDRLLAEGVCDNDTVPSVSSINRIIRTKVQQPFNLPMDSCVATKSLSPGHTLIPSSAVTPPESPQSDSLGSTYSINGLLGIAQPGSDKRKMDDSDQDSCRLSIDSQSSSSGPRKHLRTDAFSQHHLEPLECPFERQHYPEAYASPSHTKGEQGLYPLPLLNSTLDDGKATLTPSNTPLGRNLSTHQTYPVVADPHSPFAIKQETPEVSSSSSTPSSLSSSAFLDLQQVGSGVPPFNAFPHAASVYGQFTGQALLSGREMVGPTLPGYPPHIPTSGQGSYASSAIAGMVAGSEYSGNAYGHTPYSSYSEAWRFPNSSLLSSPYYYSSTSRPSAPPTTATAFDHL

[11] = OVCAR8 cell viability loss – plate reader, dry powder samples, PAX8 project, dose response (AID 743197); assay type: functional, cell-based; conditions: OVCAR-8
[12] = A2780 cell killing – plate reader, dry powder samples, cytotoxicity control, dose response (AID 743046); assay type: functional, cell-based
[13] = IGROV1 cell killing – plate reader, dry powder samples, PAX8 inhibitor project, dose response (AID 743043); assay type: functional, cell-based; conditions: IGROV-1
[14] = toxicity toward immortalized ovarian surface epithelium – cell-based, plate reader, dry powder samples, cytotoxicity control for PAX8 inhibitor project, dose response (AID 743045); assay type: functional

Kallikrein-7, sequence (P49862 whole entry): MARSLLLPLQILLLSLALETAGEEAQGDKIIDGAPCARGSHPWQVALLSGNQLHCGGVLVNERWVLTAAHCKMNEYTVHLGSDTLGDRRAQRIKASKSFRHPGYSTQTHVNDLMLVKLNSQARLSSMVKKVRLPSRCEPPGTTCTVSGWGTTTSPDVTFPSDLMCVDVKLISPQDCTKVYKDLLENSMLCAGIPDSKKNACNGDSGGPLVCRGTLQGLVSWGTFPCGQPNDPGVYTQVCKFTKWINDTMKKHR

## N=c1c(C(=O)NCC2CCCO2)cc2c(=O)n3ccccc3nc2n1C1CCCC1 (stereo not drawn)
[1]
  EC50: 24.4 µM (inactive)

## Cc1ccc(NC(=O)N2CCc3ccccc32)cc1
[2]
  EC50: > 50 µM (not active)
[3]
  EC50: 0.72 µM (active)

## CC(c1nc2ccccc2[nH]1)n1c(=O)c(-c2cccs2)nc2ccccc21 (stereo not drawn)
[1]
  EC50: 8.14 µM (active)

## CC1CCN(c2ccc3c(c2)S(=O)(=O)c2cccc(C(=O)NC4CC4)c2C3=O)CC1
[4]
  IC50: 22.6 µM (not active)
[5]
  IC50: > 55.9 µM (not active)

## Cc1cccc(C(=O)Nc2ccnc(-c3cccnc3)n2)c1
[4]
  IC50: 35.7 µM (not active)
[5]
  IC50: 7 µM (active)

## O=C(NC(=S)Nc1nc(-c2ccccc2)cs1)c1cncc(Br)c1
[6]
  EC50: 11.2 µM (active)
[7]
  IC50: > 66 µM (inactive)
[8]
  IC50: > 66 µM (inactive)

## CCN(CC)C(=S)NC(=O)c1ccc(OC)c(Br)c1
[6]
  EC50: 0.66 µM (active)

## C[C@H](CO)N1C[C@H](C)[C@@H](CN(C)Cc2ccncc2)Oc2ccc(NC(=O)Nc3ccc(C(F)(F)F)cc3)cc2CC1=O
[9]
  AC50: 22.8 µM (active)
[10]
  AC50: 5.69 µM (active)
[11]
  AC50: > 70 µM (inactive)
[12]
  AC50: 32.5 µM (active)
[13]
  AC50: 26.8 µM (active)
[14]
  AC50: 37.6 µM (active)
